Reference: patent publication US20220397566A1, “GAMMA-SECRETASE STABILIZING COMPOUND SCREENING ASSAY” (VIB VZW, priority 2019, published 2022)

How the values were obtained:
Format in all cases: cell-based, mouse
PSEN2/g-secretase = target: T1, PSEN2/g-secretase (Homo sapiens, UniProt P49810); experiment: Localisation of GFP-PSEN2/g-secretase in LAMP1-positive organelles (confocal); conditions: 1 μM, 16 hrs; dKO MEFs rescued with EGFP-PSEN2
T1 construct: expressed in transfected cells
Description: (§1) We now questioned whether g-secretase inhibitors would affect subcellular distribution of g-secretase complexes as well. We made use of mouse embryonic fibroblasts (MEFs) in which both PSEN1 an PSEN2 are knocked-out (dKO), rescued with either EGFP-PSEN1 or EGFP-PSEN2 (FIG. 1A). […] The dKO MEFs were then incubated overnight with N—[N-(3,5-difluorophenacetyl)-L-alanyl]-S-phenylglycine t-butyl ester (DAPT). DAPT is a non-transition state analogue (TSA) g-secretase inhibitor that is widely used (Dovey et al 2001 J Neurochem 76).
All culture media and sera are from ThermoFisher Scientific. Mouse embryonic fibroblasts (MEFs), PSEN1 knock-out (1 ko), PSEN1 and PSEN2 double knock-out (dKO, Herreman et al 2000 Nat Cell Biol 2), rescued 1 ko and dKO cell lines cells were routinely grown in Dulbecco's modified Eagle's medium (DMEM/F12) supplemented with 10% fetal calf serum (FCS). All cell lines were maintained in a humidified chamber with 5% CO2 at 37° C. […]
Cells were plated on glass coverslips, transfected 24 h later and processed for indirect immunolabeling the next day (Sannerud et al 2011 Proc Natl Acad Sci USA 108). […] ImageJ software with the plugin JACoP (Bolte and Cordelieres 2006 J Microsc 224) was used for signal overlap quantification (Mander's coefficient). Images were acquired with identical settings and regions of interest (ROI) covering whole cells were used for quantification.

[1] = target: T2, PSEN1/g-secretase complex (Homo sapiens, UniProt P49768); experiment: Relocation of GFP-PSEN1/g-secretase to LAMP1-positive late endosomes (confocal immunofluorescence)
T2 construct: expressed in transfected cells
Description: as §1
All culture media and sera are from ThermoFisher Scientific. Mouse embryonic fibroblasts (MEFs), PSEN1 knock-out (1 ko), PSEN1 and PSEN2 double knock-out (dKO, Herreman et al 2000 Nat Cell Biol 2), rescued 1 ko and dKO cell lines cells were routinely grown in Dulbecco's modified Eagle's medium (DMEM/F12) supplemented with 10% fetal calf serum (FCS). All cell lines were maintained in a humidified chamber with 5% CO2 at 37° C. Primary hippocampal neuron cultures are derived from E18 rat embryos (Esselens et al 2004 J Cell Biol 166). Stable rescued 1 ko and dKO cell lines were generated using replication-defective recombinant retroviral system (pMCSV vector, Clontech) expressing the gene of interest.
Cells were plated on glass coverslips, transfected 24 h later and processed for indirect immunolabeling the next day (Sannerud et al 2011 Proc Natl Acad Sci USA 108). Images were captured on a confocal microscope (Leica TCS SP5 II, Leica Microsystems) connected to an upright microscope, using an oil-immersion plan Apo 60× A/1.40 NA objective lens. Image acquisition was performed with LAS (Leica Microsystems). Images were further processed with ImageJ and PhotoshopCS6 (Adobe, Calif.). ImageJ software with the plugin JACoP (Bolte and Cordelieres 2006 J Microsc 224) was used for signal overlap quantification (Mander's coefficient). Images were acquired with identical settings and regions of interest (ROI) covering whole cells were used for quantification.

FAD-PSEN1 mutants = experiment: Late endosomal localisation of FAD-PSEN1 mutants in PSEN1 KO MEFs; conditions: DAPT 1 μM 16 h
Description: FIG. 6. Familial Alzheimer's disease (FAD) mutations in PSEN1 differently affect g-secretase localization in late endosomes. Ratio of GFP intensity in LAMP1 endosomes over total GFP signal in PSEN1 KO MEFs stably rescued with GFP-PSEN1 wild-type (Wt) or the indicated FAD-PSEN1 mutants and treated with DMSO or DAPT (1 μM) 16 h.
As these mutations were reported to have an early onset and high thermo-instability (reflecting lowest processivity), we extended this experiment to other mutations reported in Szaruga et al (2017 Cell 170). In line with the above, the PSEN1-P88L mutation translocated PSEN1/g-secretase to late endosomes as well. […] These mutations have a higher onset and affect the Ab processivity less as compared to L166P, G384A and P88L mutants.

C[C@H](NC(=O)Cc1cc(F)cc(F)c1)C(=O)N[C@H](C(=O)OC(C)(C)C)c1ccccc1 [DAPT, N—[N-(3,5-difluorophenacetyl)-L-alanyl]-S-phenylglycine t-butyl ester] was tested, and the “EGFP-PSEN2 in LAMP1-positive organelles, Mander's coefficient” value (PSEN2/g-secretase) was “no additional effect”, the “ratio of EGFP-PSEN2 fluorescence within LAMP1-positive compartments over total” value (PSEN2/g-secretase) was “remained unaltered” and the “EGFP-PSEN1 in LAMP1-positive organelles, Mander's coefficient” value ([1]; 1 μM, 16 hrs, PSEN1/PSEN2 dKO MEFs rescued with EGFP-PSEN1) was “threefold increase”. For the same compound, the “increase in ratio of EGFP-PSEN1 fluorescence within LAMP1-positive compartments over total EGFP-PSEN1” value ([1]; 1 μM, 16 hrs, dKO MEFs rescued with EGFP-PSEN1) was 50%, the “translocation of the PSEN1/g-secretase complex to the late endosomes (Rel MFI)” value ([1]; 1 μM, FIG. 8) was “induce a translocation of the PSEN1/g-secretase complex to the late endosomes” and the “reversibility of late endosomal relocation after wash-out” value ([1]; DAPT-containing medium replaced with fresh medium, 16 hrs) was “fully reversible”. For the same compound, the “dose dependence of PSEN1/g-secretase relocation” value ([1]; between 1 and 1000 nM) was “clear dose response”, the “fold increase by which PSEN1/g-secretase relocates” value ([1]; dose response, normalised to DMSO) was “almost two-fold” and the “late endosomal localization of mutant PSEN1” value (FAD-PSEN1 mutants; L166P, G384A, P88L mutants) was “did not further increase late endosomal localization”. The “shift of PSEN1/g-secretase to late endosomes” value (FAD-PSEN1 mutants; Y115H and E280A mutants) was “did not shift PSEN1/g-secretase to late endosomes, unless treated with DAPT”.
